The test system of one series is Her1 phosphorylation. The experiment in a line: eTag assay of cell lysates for Her1 receptor phosphorylation. The following applies: BT-20 cells, increasing EGF concentration. The series is classed as cell-based, human. The protocol: Sample preparation was carried out essentially as described in Example 2.
Assay design: A monoclonal antibody specific to the receptor is separately conjugated with either a molecular tag or biotin (that is then linked to a photosensitizer via an avidin bridge), so that the cleaving probe and a binding compound compete to bind to the same epitope in this example. Another binding compound is used that consists of a second anibody recognizing an […] epitope on the receptor, so that a ratiometric signal can be generated as a measure of homodimerization. The signal derived from the second antibody also provides a measure of the total amount of receptor in a sample. The total amount of receptor is determined in a separate assay well. Receptor phosphorylation can be quantified together with either homodimerization or total receptor amount.
Procedure: The assay volume is 40 ul and the general procedure is similar to that of Example 2. Two assay wells, A and B, are set up for each sample to quantify homodimerization and total amount of receptor separately. […]

In series [1] the test system is intracellular phosphorylated tyrosine (Her receptor phosphorylation). The series is described as follows: eTag assay of formalin fixed paraffin embedded cell pellets for receptor phosphorylation. The series is classed as cell-based, human. The following applies: 100 nM EGF vs non-stimulated. The protocol: In this example, model fixed tissues made from pelleted cell lines were assayed for the presence of Her receptor dimers. The assay design for heterodimers was essentially the same as that described in FIG. 4A, with exceptions as noted below. That is, four components are employed: (i) a cleaving probe comprising a biotinylated monoclonal antibody conjugated to a cleavage-inducing moiety (in this example, a photosensitizer-derivatized streptavidin, as illustrated in FIG. 3E) and specific for one of the receptors of the dimer, (ii) a monoclonal antibody derivatized with a first molecular tag and specific for the same receptor as the cleaving probe, (iii) a monoclonal antibody derivatized with a second molecular tag and specific for the receptor opposite to that the cleaving probe is specific for, and (iv) a monoclonal antibody derivatized with a third molecular tag and specific for an intracellular phosphorylated tyrosine. The assay design for homodimers was essentially the same as that described in FIG. 1D, with exceptions as noted below.
In each case, model fixed tissues were prepared as follows: cells grown on tissue culture plates were stimulated with either EGF or HRG as described in the prior examples, after which they were washed and removed by scrapping. […]

A further series concerns the target T1, Her2-Her3 heterodimers (Homo sapiens, UniProt P04626+P21860).
T1 construct: endogenous in cells; host or cells: MCF-7
The series is described as follows: eTag assay of cell lysates for Her2-Her3 heterodimers after ligand stimulation. The series is classed as cell-based. The conditions noted are these: MCF-7 cells, increasing ligand concentrations (0-100 nM), 10 minutes at 37° C. The protocol:
Measurements are made using three binding compounds and a cleaving probe as described below.
• 1. Serum-starve breast cancer cell line culture overnight before use. • 2. […] Aspirate culture media, transfer onto ice, and add lysis buffer to lyse cells in situ. • 4. Scrape and transfer lysate to microfuge tube. Incubate on ice for 30 min. Microfuge at 14,000 rpm, 4° C., for 10 min. (Centrifugation is optional.) • 5. Collect supernatants as lysates and aliquot for storage at −80° C. until use. Assay: Assay design: As illustrated diagrammatically in FIG. 4A, Her2-Her3 heterodimers (900) are quantified ratiometrically based on the binding of cleaving probe (902) and binding compounds (904), (906), and (908). A photosensitizer indicated by “PS” is attached to cleaving probe (902) via an avidin-biotin linkage, and binding compounds (904), (906), and (908) are labeled with molecular tags Pro4, Pro10, and Pro 11, respectively. Binding compound (904) is specific for a phosphorylation site on Her3. The total assay volume is 40 ul. The lysate volume is adjusted to 30 ul with lysis buffer. […]
Data Analysis: • 3. Normalize relative fluorescence units (RFU) signal of each molecular tag against CE reference standard A315 (a fluorescein-derivatized deoxyadenosine monophosphate that has known peak position relative to molecular tags from the assay upon electrophoretic separation). • 4. […]

Turning to “EGF: epidermal growth factor, ligand used to stimulate cell lines”, the “quantity of Her1 phosphorylation” value with Her1 phosphorylation is listed as “increases”. The Her receptor phosphorylation entry in series [1] (fixed pellets of 22Rv1 cells) is “up-regulation”. Further, in series [1] (fixed pellets of MDA-MB468 cells), the intracellular phosphorylation entry is reported as “increases”. Besides, the “quantity of Her2-Her3 heterodimers” value with Her2-Her3 heterodimers is “essentially no change”.

Source of the values: US7402399B2, “Receptor tyrosine kinase signaling pathway analysis for diagnosis and therapy” (Monogram BioSciences, Inc., priority 2003, dated 2008).
